Like-named read-outs stand apart in the source and are kept apart here.
Tests used:
HIV-1 [1] = experiment: Inhibition of HIV-1 in MT4 cells; type: cell-based; settings: read-out: HIV1 MT4: EC50 for inhibition of HIV-1 in MT4 cells
Procedure: (§1) Cells were infected with HIV-1 as previously described [Balzarini et al. AIDS (1991), 5, 21–28]. Briefly, 5×10^5 cells per milliliter were infected with HIV-1 or HIV-2 at 100 CCID50 (50% cell culture infective dose) per milliliter of cell suspension. Then 100 μL of the infected cell suspension was transferred to microtiter plate wells and mixed with 100 μL of the appropriate dilutions of the test compounds. After 4 days giant cell formation was recorded microscopically in the HIV-infected cell cultures [CEM], and after 5 days the number of viable cells was determined by trypan blue staining of the HIV-infected cell cultures [MT4].
(§2) The data columns are, in order: • HIV1 MT4: EC50 in μM for inhibition of HIV-1 in MT4 cells. • HIV2 MT4: EC50 in μM for inhibition of HIV-2 in MT4 cells. • CC50 MT4: CC50 in μM for toxicity to MT-4 cells. • HIV1 CEM: EC50 in μM for inhibition of HIV-1 in CEM cells. • HIV2 CEM: EC50 in μM for inhibition of HIV-2 in CEM cells. • HIV2 CEM-TK-: EC50 in μM for inhibition of HIV-2 in CEM/TK^− cells. • CC50 CEM: CC50 in μM for toxicity to CEM cells. • EC50 MSV: EC50 in μM for inhibition of MSV • MCC MSV: Minimum cytotoxic concentration in MSV assay

HIV-1 [2] = experiment: microbe, parasite or virus in culture; settings: read-out: HIV1 CEM: EC50 for inhibition of HIV-1 in CEM cells
Procedure, shortened: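 5×10^5 cells/mL, 100 CCID50/mL virus, + compound dilutions. CEM: giant cells scored microscopically, day 4. MT-4: viability by trypan blue, day 5.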

HIV-2 [3] = experiment: Inhibition of HIV-2 in MT4 cells; type: cell-based; settings: read-out: HIV2 MT4: EC50 for inhibition of HIV-2 in MT4 cells
Procedure: as §1, §2

HIV-2 [4] = experiment: Inhibition of HIV-2 in CEM/TK- cells; type: cell-based
Procedure, shortened: (§3)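 Trypan blue staining of MT-4 cultures on day 5 gave viable cell numbers; CEM cultures were checked microscopically for giant cells on day 4. Both cell types were infected at 100 CCID50/mL (5×10^5 cells/mL) and incubated with compound dilutions.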

HIV-2 [5] = experiment: Inhibition of HIV-2 in CEM cells (giant cell formation); type: cell-based
Procedure, shortened: as §3

MT-4 cells = experiment: Toxicity to MT-4 cells; type: cell-based, human; settings: read-out: CC50 MT4: CC50 for toxicity to MT-4 cells
Procedure: as §1, §2

C8166 cells = experiment: Toxicity in C8166 cells (MTT-Formazen); type: cell-based; settings: Table 3
Procedure: (§4) C8166 cells. Cells were grown in RPMI 1640 with 10% calf serum. 4×10^4 cells per microtiter plate well were mixed with 5-fold dilutions of compound prior to addition of 10 CCID50 units of III-B strain of HIV-1 and incubated for 5–7 days (Betbeder et al. Antiviral Chem. Chemother. 1, 241–247, 1990). Formation of syncytia was examined from 2 days post-infection. Culture fluid was collected at 5–7 days and gp120 antigen production measured by ELISA (Mahmood and Hay, J. Immunol. Meth., 151, 9–13, 1992). […] Cell viability of infected and uninfected cells were assessed by the MTT-Formazen method (Pauwels et al. J. Virol. Meth. 20, 309–321, 1988).
(§5) Each assay was carried out in duplicate, on at least two separate occasions, and data quoted are the average of each separate assay.

III-B strain of HIV-1 = experiment: microbe, parasite or virus in culture; type: cell-based
Procedure: as §4, §5

CEM cells = experiment: Toxicity to CEM cells; type: cell-based, human; settings: Table 6; mean of two or more repeat experiments
Procedure: as §1, §2

[6] = CEM/TK- cells, HIV-2, read-out: HIV2 CEM-TK-: EC50 for inhibition of HIV-2 in CEM/TK- cells
[7] = CEM cells, HIV-2, read-out: HIV2 CEM: EC50 for inhibition of HIV-2 in CEM cells
[8] = Table 6, mean of two or more repeat experiments
[9] = HIV1 in C8166 cells, Table 3, read-out: Activity EC50
[10] = Table 6, mean of two or more repeat experiments, read-out: HIV2 CEM-TK-: EC50 for inhibition of HIV-2 in CEM/TK^− cells
[11] = Table 6, mean of two or more repeat experiments, read-out: HIV2 CEM: EC50 for inhibition of HIV-2 in CEM cells
[12] = HIV2, Table 2, read-out: EC50 CEM TK^−

| SMILES | EC50 (HIV-1 [1]; MT4 cells, HIV-1) | EC50 (HIV-1 [2]; CEM cells, HIV-1) | EC50 (HIV-2 [3]; MT4 cells, HIV-2) | EC50 (HIV-2 [4]; [6]) | EC50 (HIV-2 [5]; [7]) | CC50 (MT-4 cells; MT-4 cells) | CC50 (C8166 cells) | EC50 (HIV-1 [2]; [8]) | Selectivity CC50/EC50 × 10^3 (III-B strain of HIV-1) | EC50 (III-B strain of HIV-1; [9]) | CC50 (CEM cells) | EC50 (HIV-2 [4]; [10]) | EC50 (HIV-2 [5]; [11]) | EC50 (HIV-1 [1]; [8]) | EC50 (HIV-2 [3]; [8]) | CC50 (MT-4 cells; [8]) | EC50 (III-B strain of HIV-1; HIV1 in C8166, Table 2, read-out: EC50 C8166) | EC50 (HIV-2 [4]; [12]) | EC50 (HIV-2 [5]; [12]) |
| --- | --- | --- | --- | --- | --- | --- | --- | --- | --- | --- | --- | --- | --- | --- | --- | --- | --- | --- | --- |
| COC(=O)[C@H](C)NP(=O)(OCC1OC(n2cc(C)c(=O)[nH]c2=O)CC1N=[N+]=[N-])Oc1cc(Cl)cc(Cl)c1 (stereo partly drawn) [Compound 550, 3′-Deoxy-3′-β-azidothymidine 5′-(3,5-dichlorophenylmethoxylalaninyl) phosphoramidate] | 0.5 µM | 1.4 µM | 1 µM | 12 µM | 3 µM | 98 µM | – | – | – | – | – | – | – | – | – | – | – | – | – |
| Cc1cn(C2C=CC(COP(=O)(N[C@@H](C)C(=O)OC3CCCCC3)Oc3ccccc3)O2)c(=O)[nH]c1=O (stereo partly drawn) [Compound 892, 2′,3′-dideoxy-2′,3′-didehydrothymidine 5′-(phenyl N-cyclohexyloxyalaninyl) phosphoramidate] | – | – | – | – | – | – | 500 µM | 0.065 µM | 312 × 10^3 | 0.0016 µM | 51.4 µM | 0.09 µM | 0.075 µM | – | – | – | – | – | – |
| Cc1cn(C2CC(N=[N+]=[N-])C(CO)O2)c(=O)[nH]c1=O (stereo not drawn) [Cpd 499] | 0.9 µM | 3 µM | 2.3 µM | > 250 µM | 4 µM | > 250 µM | – | – | – | – | – | – | – | – | – | – | – | – | – |
| Cc1cn([C@H]2C=C[C@@H](COP(=O)(NC(C)C(=O)OC(C)(C)C)Oc3ccccc3)O2)c(=O)[nH]c1=O (stereo partly drawn) [Compound 893, 2′,3′-dideoxy-2′,3′-didehydrothymidine 5′-(phenyl N-tButyloxyalaninyl) phosphoramidate] | – | – | – | – | – | – | > 1000 µM | 0.85 µM | >5.0 × 10^3 | 0.2 µM | ≥ 250 µM | 0.74 µM | 1.1 µM | – | – | – | – | – | – |
| CCCCCCOC(=O)[C@H](C)NP(=O)(OCC1C=CC(n2cc(C)c(=O)[nH]c2=O)O1)Oc1ccccc1 (stereo partly drawn) [Compound 862, 2′,3′-dideoxy-2′,3′-didehydrothymidine 5′-(phenyl N-hexyloxyalaninyl) phosphoramidate] | – | – | – | – | – | – | 500 µM | 0.06 µM | 417 × 10^3 | 0.0012 µM | 48 µM | 0.033 µM | 0.055 µM | – | – | – | – | – | – |
| CCOP(=O)(N[C@@H](C)C(=O)OC)OC[C@@H]1C=C[C@H](n2cc(C)c(=O)[nH]c2=O)O1 (stereo partly drawn) [Compound 564] | – | – | – | – | – | – | – | > 48 µM | – | – | ≥ 250 µM | > 48 µM | > 240 µM | 28.5 µM | 62.6 µM | ≥ 250 µM | – | – | – |
| COC(=O)C(C)NP(=O)(OCC1OC(n2cc(C)c(=O)[nH]c2=O)CC1N=[N+]=[N-])Oc1cccc(C(F)(F)F)c1 (stereo not drawn) [Compound 536, 3′-Deoxy-3′β-azidothymidine 5′-(m-trifluoromethylphenylmethoxylalaninyl) phosphoramidate] | 0.45 µM | 1 µM | 0.9 µM | 3 µM | 2 µM | 104 µM | – | – | – | – | – | – | – | – | – | – | – | – | – |
| CCCOP(=O)(N[C@@H](C)C(=O)OC)OC[C@@H]1C=C[C@H](n2cc(C)c(=O)[nH]c2=O)O1 (stereo partly drawn) [Compound 326] | – | – | – | – | – | – | – | > 230 µM | – | – | ≥ 250 µM | 135 µM | > 230 µM | 36 µM | 84 µM | > 250 µM | – | – | – |
| COC(=O)[C@H](C)NP(=O)(OCC1OC(n2cc(C)c(=O)[nH]c2=O)CC1N=[N+]=[N-])Oc1ccccc1 (stereo partly drawn) [Compound 462, 3′-Deoxy-3′-β-azidothymidine 5′-(phenylmethoxylalaninyl) phosphoramidate] | 33 µM | 27.5 µM | 11 µM | 30 µM | 40 µM | 121 µM | – | – | – | – | – | – | – | – | – | – | – | – | – |
| Cc1cn(C2C=CC(COP(=O)(NC(C)C(=O)OCc3ccccc3)Oc3ccc(Br)cc3Br)O2)c(=O)[nH]c1=O (stereo not drawn) [Compound 868, 2′,3′-dideoxy-2′, 3′-didehydrothymidine-5′-(2,4-dibromophenyl N-benzylalaninyl) phosphoramidate] | – | – | – | – | – | – | 500 µM | 0.2 µM | 156 × 10^3 | 0.0032 µM | 50 µM | 0.2 µM | 0.2 µM | – | – | – | – | – | – |
| COC(=O)C(Cc1ccccc1)NP(=O)(OCC1C=CC(n2cc(C)c(=O)[nH]c2=O)O1)OCC(Cl)(Cl)Cl (stereo not drawn) [Compound 325] | – | – | – | – | – | – | – | 1 µM | – | – | – | 0.7 µM | 2 µM | 0.44 µM | 0.5 µM | > 100 µM | – | – | – |
| Cc1cn(C2C=CC(COP(=O)(NC(C)C(=O)OCc3ccccc3)Oc3ccccc3)O2)c(=O)[nH]c1=O (stereo not drawn) [Compound 730, 2′,3′-dideoxy-2′,3′-didehydrothymidine-5′-(phenyl N-benzyloxyalaninyl) phosphoramidate] | – | – | – | – | – | – | 400 µM | 0.016 µM | – | 0.0008 µM | – | 0.06 µM | 0.016 µM | – | – | – | 0.0008 µM | 0.06 µM | 0.016 µM |
| Cc1cn(C2C=CC(COP(=O)(Oc3ccc(Br)cc3Br)N(C)C(C)C(=O)O)O2)c(=O)[nH]c1=O (stereo not drawn) [Compound 776, 2′,3′-dideoxy-2′,3′-didehydrothymidine-5′-(2,4-dibromophenyl N-methylalaninyl) phosphoramidate] | – | – | – | – | – | – | 100 µM | 0.04 µM | 125 × 10^3 | 0.0008 µM | 16 µM | 0.025 µM | 0.055 µM | – | – | – | – | – | – |
| Cc1cn([C@H]2C=C[C@@H](COP(=O)(NC(Cc3ccccc3)C(=O)OC(C)(C)C)Oc3ccccc3)O2)c(=O)[nH]c1=O (stereo partly drawn) [Compound 878, 2′,3′-dideoxy-2′,3′-didehydrothymidine-5′-(phenyl N-tert-butylphenylalaninyl) phosphoramidate] | – | – | – | – | – | – | 150 µM | 2 µM | 0.9 × 10^3 | 0.16 µM | 80 µM | 0.65 µM | 2 µM | – | – | – | – | – | – |
| Cc1cn(C2C=CC(COP(=O)(NC(Cc3ccccc3)C(=O)OCc3ccccc3)Oc3ccccc3)O2)c(=O)[nH]c1=O (stereo not drawn) [Compound 877, 2′,3′-dideoxy-2′,3′-didehydrothymidine-5′-(phenyl N-methoxyglycinyl) phosphoramidate] | – | – | – | – | – | – | 80 µM | 0.6 µM | 267 × 10^3 | 0.0003 µM | 44 µM | 0.24 µM | 0.6 µM | – | – | – | – | – | – |
| COC(=O)[C@H](C)NP(=O)(OC)OC[C@@H]1C=C[C@H](n2cc(C)c(=O)[nH]c2=O)O1 (stereo partly drawn) [Compound 740] | – | – | – | – | – | – | – | 20 µM | – | – | > 250 µM | > 250 µM | 50 µM | 25.4 µM | 50.9 µM | > 250 µM | – | – | – |

Reference: US7018989B2, “Chemical compounds” (University College Cardiff Consultants, LTD, priority 1995, dated 2006)
